Consider 1 compound from publication PMC9860317, “Regulation of the DEAH/RHA helicase Prp43 by the G-patch factor Pfa1” (Proceedings of the National Academy of Sciences of the …, 2022).

For one test, the target named is T1, ctPrp43 (Prp43) (Thermochaetoides thermophila, UniProt G0RY84).
T1 construct: gene CTHT_0005780; expressed in E. coli Rosetta II as N-terminal GST fusion with C-terminal His6 or Strep tag; SEC purified; borders in SI
Kind of test: coupled ATPase assay, NADH absorption, Michaelis-Menten titration. It is filed as biochemical. Conditions: no Pfa1(gp), no ssRNA. The text has this: coupled ATPase assay, NADH absorption, Michaelis-Menten titration on ctPrp43 (Prp43) | Michaelis–Menten titration and table with ATP turnover numbers (kcat) and dissociation constants (KM)

For another test, the target named is T2, ctPrp43–Pfa1(gp) complex (Thermochaetoides thermophila, UniProt G0RY84).
T2 construct: gene CTHT_0005780; Prp43 with C-terminal His6 or Strep tag plus isolated G-patch motif of Pfa1; both from E. coli Rosetta II as GST fusions; borders in SI; with G-patch protein Pfa1 (G-patch motif)
The description is as above. It is filed as biochemical. The note with it: with Pfa1(gp), no ssRNA. The text has this:
coupled ATPase assay, NADH absorption, Michaelis-Menten titration on ctPrp43–Pfa1(gp) complex | showing the stimulation of Prp43 ATPase activity by Pfa1(gp) and ssRNA

T1 sequence (G0RY84 entry or part of it): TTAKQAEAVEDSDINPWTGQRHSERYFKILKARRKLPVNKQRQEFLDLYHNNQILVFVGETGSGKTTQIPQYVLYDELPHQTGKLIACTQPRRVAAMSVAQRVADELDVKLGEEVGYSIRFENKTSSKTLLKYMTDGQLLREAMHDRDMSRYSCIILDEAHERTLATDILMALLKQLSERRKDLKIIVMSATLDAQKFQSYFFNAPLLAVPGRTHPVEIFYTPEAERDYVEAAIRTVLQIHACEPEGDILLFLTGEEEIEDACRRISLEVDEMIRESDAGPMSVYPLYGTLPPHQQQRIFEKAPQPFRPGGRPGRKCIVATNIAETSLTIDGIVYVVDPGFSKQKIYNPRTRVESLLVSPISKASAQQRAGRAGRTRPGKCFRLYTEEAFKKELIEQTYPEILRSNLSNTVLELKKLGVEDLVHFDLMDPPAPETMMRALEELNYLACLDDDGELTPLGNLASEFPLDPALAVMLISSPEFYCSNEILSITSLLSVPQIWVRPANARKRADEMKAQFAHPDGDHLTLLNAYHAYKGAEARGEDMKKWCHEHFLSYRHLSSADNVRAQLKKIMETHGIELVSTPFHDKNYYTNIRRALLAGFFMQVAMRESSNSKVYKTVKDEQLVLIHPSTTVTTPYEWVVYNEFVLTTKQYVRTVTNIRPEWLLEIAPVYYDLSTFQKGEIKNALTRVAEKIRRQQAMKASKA
T2 sequence (G0RY84 entry or part of it, one chain of several): as the sequence (G0RY84 entry or part of it) above

By Km is commonly meant the substrate concentration at which the rate is half of its maximum. As to `Nc1ncnc2c1ncn2[C@@H]1O[C@H](COP(=O)(O)OP(=O)(O)OP(=O)(O)O)[C@@H](O)[C@H]1O` [ATP], the Michaelis constant (Km) on ctPrp43 (Prp43) came to 29.5 ± 6 µM; at ctPrp43–Pfa1(gp) complex, 4.5 ± 0.3 µM.
